The numbers were not newly measured in patent publication US20220296560A1, “PHARMACEUTICAL COMPOSITION FOR ORAL ADMINISTRATION IN POWDER FORMULATION CONTAINING ANTIVIRAL AGENT” (DAE HWA PHARMA. CO., LTD., priority 2019, published 2022), which cites them from elsewhere.

For this data set the following is noted: in vivo.

Where two headings read alike, the source gives them in different places.

Take `CC(=O)N[C@H]1[C@H]([C@H](O)[C@H](O)CO)OC(C(=O)O)=C[C@@H]1N=C(N)N` [zanamivir, 5-(acetylamino)-4-{[amino(imino)methyl]amino}-2,6-anhydro-3,4,5-trideoxy-D-glycero-D-galacto-non-2-enonic acid]: the bioavailability by setting is: (inhaled or intranasal) 4-17%; (po) “about 2%”.
